Measured values as given in publication PMC6364417, “Kinase inhibitor library screening identifies synergistic drug combinations effective in sensitive and resistant melanoma cells” (Journal of Experimental & Clinical Cancer Research : CR, 2019).

Key:
Test in all cases: Kinase inhibitor library screening, PrestoBlue cell viability, 1 or 10 μM, 72 h
[1] = system: IGR37-GP cells (Dabrafenib-resistant)
[2] = system: A375-GP cells (Dabrafenib-resistant)
[3] = system: 501Mel-GP cells (Dabrafenib-resistant); conditions: 72 h
[4] = system: IGR37 cells (parental)
[5] = system: 501Mel cells (parental); conditions: 72 h
How it was run: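 Kinase inhibitors added at two fixed concentrations; 72 h exposure; PrestoBlue readout; % viability vs untreated; n ≥ 2 per line.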

[6] = system: IGR37-XP cells (Vemurafenib-resistant)
[7] = system: A375-XP cells (Vemurafenib-resistant)
[8] = system: A375 cells (parental)
[9] = system: 501Mel-XP cells (Vemurafenib-resistant); conditions: 72 h

## Cn1cnc2c(F)c(Nc3ccc(Br)cc3Cl)c(C(=O)NOCCO)cc21 [AZD6244 (Selumetinib)]
[1]; Homo sapiens, IGR-37, 72 h, read-out: cell viability, IGR37 GP, 1μΜ
  viability at 1 µM: 92%
[1]; Homo sapiens, IGR-37, 72 h, read-out: cell viability, IGR37 GP, 10μΜ
  viability at 10 µM: 62.7%
[2]; Homo sapiens, A-375, 72 h, read-out: cell viability, A375 GP, 1μΜ
  viability at 1 µM: 29.4%
[2]; Homo sapiens, A-375, 72 h, read-out: cell viability, A375 GP, 10μΜ
  viability at 10 µM: 17.8%
[3]; Homo sapiens, read-out: cell viability, 501Mel GP, 1μΜ
  viability at 1 µM: 96.9%
[3]; Homo sapiens, read-out: cell viability, 501Mel GP, 10μΜ
  viability at 10 µM: 73.6%
[4]; Homo sapiens, IGR-37, 72 h, read-out: cell viability, IGR37 Parental, 1μΜ
  viability at 1 µM: 40.2%
[4]; Homo sapiens, IGR-37, 72 h, read-out: cell viability, IGR37 Parental, 10μΜ
  viability at 10 µM: 36.6%
[5]; Homo sapiens, read-out: cell viability, 501Mel Parental, 1μΜ
  viability at 1 µM: 61.6%
[5]; Homo sapiens, read-out: cell viability, 501Mel Parental, 10μΜ
  viability at 10 µM: 60.6%
[6]; Homo sapiens, IGR-37, 72 h, read-out: cell viability, IGR37 XP, 1μΜ
  viability at 1 µM: 83.3%
[6]; Homo sapiens, IGR-37, 72 h, read-out: cell viability, IGR37 XP, 10μΜ
  viability at 10 µM: 42.2%
[7]; Homo sapiens, A-375, 72 h, read-out: cell viability, A375 XP, 1μΜ
  viability at 1 µM: 42.3%
[7]; Homo sapiens, A-375, 72 h, read-out: cell viability, A375 XP, 10μΜ
  viability at 10 µM: 15%
[8]; Homo sapiens, A-375, 72 h, read-out: cell viability, A375 Parental, 1μΜ
  viability at 1 µM: 21.3%
[8]; Homo sapiens, A-375, 72 h, read-out: cell viability, A375 Parental, 10μΜ
  viability at 10 µM: 18.6%
[9]; Homo sapiens, read-out: cell viability, 501Mel XP, 1μΜ
  viability at 1 µM: 81.2%
[9]; Homo sapiens, read-out: cell viability, 501Mel XP, 10μΜ
  viability at 10 µM: 58.1%

## CO[C@H]1C[C@@H]2CC[C@@H](C)[C@@](O)(O2)C(=O)C(=O)N2CCCC[C@H]2C(=O)O[C@H]([C@H](C)C[C@@H]2CC[C@@H](OC(=O)C(C)(CO)CO)[C@H](OC)C2)CC(=O)[C@H](C)/C=C(\C)[C@@H](O)[C@@H](OC)C(=O)[C@H](C)C[C@H](C)/C=C/C=C/C=C/1C [Temsirolimus (Torisel)]
[1]; IGR37 GP, 10μΜ, 72 h
  Cell viability in kinase inhibitor library screening, IGR37 GP, 10μΜ: 41.7%
[1]; IGR37 GP, 1μΜ, 72 h, in %
  Cell viability in kinase inhibitor library screening, IGR37 GP, 1μΜ: 91.9
[2]; A375 GP, 1μΜ, 72 h
  Cell viability in kinase inhibitor library screening, A375 GP, 1μΜ: 81.2
[2]; A375 GP, 10μΜ, 72 h
  Cell viability in kinase inhibitor library screening, A375 GP, 10μΜ: 73.7
[3]; 501Mel GP, 1μΜ, in %
  Cell viability in kinase inhibitor library screening, 501Mel GP, 1μΜ: 69.5
[3]; 501Mel GP, 10μΜ, in %
  Cell viability in kinase inhibitor library screening, 501Mel GP, 10μΜ: 60.0
[4]; IGR37 Parental, 1μΜ, 72 h, in %
  Cell viability in kinase inhibitor library screening, IGR37 Parental, 1μΜ: 79.0
[4]; IGR37 Parental, 10μΜ, 72 h, in %
  Cell viability in kinase inhibitor library screening, IGR37 Parental, 10μΜ: 82.7
[5]; 501Mel Parental, 1μΜ, in %
  Cell viability in kinase inhibitor library screening, 501Mel Parental, 1μΜ: 83.5
[5]; 501Mel Parental, 10μΜ, in %
  Cell viability in kinase inhibitor library screening, 501Mel Parental, 10μΜ: 79.5
[6]; IGR37 XP, 10μΜ, 72 h
  Cell viability in kinase inhibitor library screening, IGR37 XP, 10μΜ: 5.5%
[6]; IGR37 XP, 1μΜ, 72 h, in %
  Cell viability in kinase inhibitor library screening, IGR37 XP, 1μΜ: 96.0
[7]; A375 XP, 1μΜ, 72 h
  Cell viability in kinase inhibitor library screening, A375 XP, 1μΜ: 81.1
[7]; A375 XP, 10μΜ, 72 h
  Cell viability in kinase inhibitor library screening, A375 XP, 10μΜ: 78.8
[8]; A375 Parental, 10μΜ, 72 h
  Cell viability in kinase inhibitor library screening, A375 Parental, 10μΜ: 73.5
[8]; A375 Parental, 1μΜ, 72 h
  Cell viability in kinase inhibitor library screening, A375 Parental, 1μΜ: 78.4
[9]; 501Mel XP, 1μΜ, in %
  Cell viability in kinase inhibitor library screening, 501Mel XP, 1μΜ: 55.1
[9]; 501Mel XP, 10μΜ, in %
  Cell viability in kinase inhibitor library screening, 501Mel XP, 10μΜ: 41.2

## Cc1cnc(NC(=O)Nc2cc(Br)c(C)cc2OC[C@@H]2CNCCO2)cn1 [LY2603618 (IC-83)]
[1]; IGR37 GP, 1μΜ, 72 h
  cell viability (kinase inhibitor library screening): 73.8%
[1]; IGR37 GP, 10μΜ, 72 h
  cell viability (kinase inhibitor library screening): 67.9%
[2]; A375 GP, 10μΜ, 72 h
  cell viability (kinase inhibitor library screening): 11.5%
[3]; 501Mel GP, 1μΜ
  cell viability (kinase inhibitor library screening): 91.7%
[3]; 501Mel GP, 10μΜ
  cell viability (kinase inhibitor library screening): 4.4%
[4]; IGR37 Parental, 1μΜ, 72 h
  cell viability (kinase inhibitor library screening): 81.7%
[4]; IGR37 Parental, 10μΜ, 72 h
  cell viability (kinase inhibitor library screening): 37.5%
[5]; 501Mel Parental, 1μΜ
  cell viability (kinase inhibitor library screening): 84.2%
[5]; 501Mel Parental, 10μΜ
  cell viability (kinase inhibitor library screening): 2.1%
[6]; IGR37 XP, 1μΜ, 72 h
  cell viability (kinase inhibitor library screening): 52.7%
[6]; IGR37 XP, 10μΜ, 72 h
  cell viability (kinase inhibitor library screening): 26.7%
[7]; A375 XP, 1μΜ, 72 h
  cell viability (kinase inhibitor library screening): 87.2%
[7]; A375 XP, 10μΜ, 72 h
  cell viability (kinase inhibitor library screening): 15.7%
[8]; A375 Parental, 10μΜ, 72 h
  cell viability (kinase inhibitor library screening): 15.4%
[8]; A375 Parental, 1μΜ, 72 h
  cell viability (kinase inhibitor library screening): 86.3%
[9]; 501Mel XP, 1μΜ
  cell viability (kinase inhibitor library screening): 69.5%
[9]; 501Mel XP, 10μΜ
  cell viability (kinase inhibitor library screening): -0.8%

## Clc1ccc(C2(c3ccc(-c4cn[nH]c4)cc3)CCNCC2)cc1 [AT7867]
[1]; IGR37 GP, 1μΜ, 72 h
  cell viability (kinase inhibitor library screening): 89.7%
[1]; IGR37 GP, 10μΜ, 72 h
  cell viability (kinase inhibitor library screening): 78.9%
[2]; A375 GP, 1μΜ, 72 h
  cell viability (kinase inhibitor library screening): 82.8%
[2]; A375 GP, 10μΜ, 72 h
  cell viability (kinase inhibitor library screening): 43.6%
[3]; 501Mel GP, 1μΜ
  cell viability (kinase inhibitor library screening): 93.8%
[3]; 501Mel GP, 10μΜ
  cell viability (kinase inhibitor library screening): 20.5%
[4]; IGR37 Parental, 1μΜ, 72 h
  cell viability (kinase inhibitor library screening): 98.1%
[4]; IGR37 Parental, 10μΜ, 72 h
  cell viability (kinase inhibitor library screening): 84.9%
[5]; 501Mel Parental, 1μΜ
  cell viability (kinase inhibitor library screening): 93.0%
[5]; 501Mel Parental, 10μΜ
  cell viability (kinase inhibitor library screening): 5.4%
[6]; IGR37 XP, 1μΜ, 72 h
  cell viability (kinase inhibitor library screening): 105.4%
[6]; IGR37 XP, 10μΜ, 72 h
  cell viability (kinase inhibitor library screening): 42.3%
[7]; A375 XP, 1μΜ, 72 h
  cell viability (kinase inhibitor library screening): 99.3%
[7]; A375 XP, 10μΜ, 72 h
  cell viability (kinase inhibitor library screening): 63.1%
[8]; A375 Parental, 10μΜ, 72 h
  cell viability (kinase inhibitor library screening): 58.0%
[8]; A375 Parental, 1μΜ, 72 h
  cell viability (kinase inhibitor library screening): 97.2%
[9]; 501Mel XP, 1μΜ
  cell viability (kinase inhibitor library screening): 81.2%
[9]; 501Mel XP, 10μΜ
  cell viability (kinase inhibitor library screening): 0.172%
